The values that follow come from patent publication US7402560B2, “NCAM binding compounds” (priority 1998, dated 2008).

Where a chain is given by its changes, count along the chain named. Names and notes keep the numbering of the source. “Also recorded” adds a separate entry of the source. No end group written: not given here.

The test system of test [1] is hippocampal neurons. The experiment in a line: Neurite outgrowth from hippocampal neurons, stereological total neurite length per cell (ProcessLength). Conditions: for neurite outgrowth (total neurite length per cell): low density culture.
The subject of test [2] is primary hippocampal neurones. The experiment in a line: Neurite outgrowth from single primary hippocampal neurones (length of longest neurite, image analysis). In kind it is cell-based, rat. Conditions: for neurite outgrowth: substrate of plastic or fibronectin, 21 h.
Description: The system allows the examination of cell adhesion, cell migration and formation of processes in the treated cells leading to possibly neurite outgrowth. To investigate the latter further, neurite extension from single neurones may be studied. Cells are prepared as in the aggregation study and seeded on a substrate of plastic or fibronectin. The cells are then maintained for a suitable time, whereafter the neurite outgrowth is analysed by a measurement of the neurite extension, for example by a computer-assisted image analysis program. The mean length of the longest neurite of each cell was measured for neurites longer than 10 μM (see FIG. 2). In addition, the mean number of branchpoints per neurite and the mean number of neurites per cell were determined. NCAM Ig1-Ig2 ligands to be tested are added immediately before seeding the cells.
5000 cells/well, corresponding to approximately 4000 cells/cm^2, were seeded in 8 well LabTek Tissue Culture Chamber Slides with a growth surface of Permanox plastic (NUNC A/S, Denmark) or fibronectin (cocultures) and maintained for 20 h as described in Example 7 (1).
To investigate the stimulatory effect on neurite extension, cells were prepared as described and seeded on a substrate of plastic or fibronectin. Cells were then maintained for 21 h and neurite outgrowth was analysed by computer-assisted image analysis using the program Linelength. The mean length of the longest neurite of each cell was measured for neurites longer than 10 μM. In addition, the mean number of branchpoints per neurite and the mean number of neurites per cell were determined.
Test [3] concerns the target T1, NCAM Ig1 domain (Rattus norvegicus, UniProt P13596).
T1 construct: encoding amino acids 1-97 of rat NCAM; made in house; host or cells: Pichia pastoris strain His 4 GS-115 (pHIL-S1 plasmid)
The test is described as follows: Plasmon surface resonance analysis of binding to NCAM Ig1. As to conditions: dendrimer peptides immobilised on sensor chip CM5, Ig1 in solution, 25° C. On the procedure:
Real-time biomolecular interaction analysis was performed using a BIAlite instrument (Pharmacia Biosensor AB, Sweden). […] Binding of Ig1 to dendrimer peptides: […] of Ig1 or Ig1I at the indicated concentrations were applied. The chip was regenerated by two […] pulses of 5 mM NaOH. Two independent experiments were performed.

Test [4] relates to hippocampal cells. The experiment in a line: Aggregate cultures of dissociated hippocampal cells (NCAM mediated cell adhesion). As to conditions: for aggregation of cells (number of cell aggregates): 24 h after seeding, higher number of aggregates reflects inhibition of aggregation; for inhibitory effect on aggregation of hippocampal cells: peptides at 180 μM (FIG. 19).
The test system of test [5] is primary hippocampal neurones on monolayers of fibroblasts. The experiment in a line: Neurite outgrowth in cocultures of neurones on fibroblast monolayers with or without NCAM-140. The class given is cell-based, rat. As to conditions: 0.54 or 5.4 μM. On the procedure:
For cocultures, neurones were seeded on monolayers of fibroblasts, either L-cells or 3T3 cells with or without NCAM-B expression. Neurones were visualised using immunohistochemical staining for growth associated protein 43 kD (GAP43). Briefly, cells were fixed 30 min in 4% paraformaldehyde in phosphate buffered saline (PBS). The primary antibody was rabbit anti-GAP43 1:100 in PBS with 1% fetal bovine serum(FBS), 0.1% bovine serum albumin (BSA), 50 mM glycine, 0.02% NaN3, 2% saponine 1 h at room temperature or overnight at 4° C. The second antibody was biotinylated swine-anti-rabbit immunoglobulins 1:100 in PBS with 1% BSA 1 h at room temperature. The third “layer” was streptavidine coupled to FITC or horse radish peroxidase (HRP) 1:100 1 h at room temperature. Between layers, washings were performed 3×20 min in PBS with 1% BSA. Images of living or stained neurones were captured and analysed by the image analysis program Line Length created at the Protein Laboratory. Putative axons were identified as the longest neurite of each cell. Only neurites longer than […] were considered.
The mean length of neurites on NCAM-expressing fibroblasts was longer than the mean length of neurites on fibroblasts without NCAM expression.

Test [6] concerns primary hippocampal neurones. The test is described as follows: Cell proliferation by BrdU incorporation ELISA. The class given is cell-based. How it is done: (§1) Cell proliferation was determined by incorporation of 5-bromo-2′-deoxyuridin in a cell proliferation ELISA system (Amersham Life Science) according to the procedure of the manufacturer. Primary hippocampal neurones were seeded in microtiter plates at a density of 33000 cells per well. […] However, the net effect on proliferation depended on the growth status of cell. […] The net effect depends on the growth status of the cells but under the proper circumstances, a stimulation of proliferation will result.
A general note: Incorporation of labelled thymidine or its analogues reports DNA synthesis.

In test [7] the test system is neuroblastoma cells. The test is described as follows: Proliferation of neuroblastoma cells. The class given is cell-based.
For test [8], the system named is PC12 cells. The experiment in a line: Proliferation and neurite outgrowth of PC12 cells. The class given is cell-based, rat. How it is done:
The effect of the ligands on proliferation and cell growth was also tested. […] After this initial promotion of proliferation, the peptides stimulate differentiation by increasing neurite outgrowth and at the same time suppressing proliferation. Thus the net effect on proliferation depends on the growth status of the cells. An effect on proliferation has been shown for primary cell cultures from the hippocampus cells and cultures of rat pheochromocytoma cell line PC12 cells. Accordingly, the ligands stimulate neurite outgrowth from and/or proliferation of NCAM presenting cells.
as §1

In test [9] the test system is primary hippocampal cells. The experiment in a line: Cell growth by Cristal Violet staining. Conditions: 0.8 μM, 48 h. In kind it is cell-based. How it is done: Cell growth is another way of monitoring proliferation of the cells. Primary hippocampal cells were seeded into 96 well microtiter culture plates (Nunc A/S) at a density of 20.000 or 40.000 per well in defined medium as described above. Cells were grown for 48 h, centrifuged in order to remove medium, fixed in 3.7% formaldehyde in PBS for 15 min and stained with 0.5% Cristal Violet in 20% methanol for 15 min. Stained cells were thoroughly washed with Milli Q purified water, thereafter residual dye was solubilised with 0.1 M sodium citrate in 50% ethanol pH 4.2 and absorbance measured at 550 nm.

Test [10] has as its target T2, NCAM (20-208) (Rattus norvegicus, UniProt P13596).
T2 construct: made in house
The test is described as follows: Gel filtration chromatography of NCAM (20-208) dimer formation. On the technique in general: SEC sorts molecules by how far they enter the pores of the column.

`COc1ccc2c(c1)CC[C@@H]1[C@@H]2CC[C@]2(C)[C@@H](NCCCCCCN3C(=O)C=CC3=O)CC[C@@H]12` [U-73122, reference compound]: the “effect on Ig2-peptide induced neurite outgrowth” value in test [1] (3.6 μM Ig2-peptide dendrimer, Ig1 25 μM, α-FGFR 1:2000, CHD 200 μM, U-73122 5 μM (FIG. 23)) was “completely abrogated”.

For `COC(=O)/C=C/c1cc(O)ccc1O` [erbstatin analogue, reference compound], in test [2], the “effect on the stimulatory effect of C3 on neurite extension” value (“effect on the stimulatory effect of C3” below) was “inhibit the stimulatory effect of C3 on neurite extension”.

Turning to `COc1ccc(CCN(C)CCCC(C#N)(c2ccc(OC)c(OC)c2)C(C)C)cc1OC` (stereo not shown) [verapamil, reference compound], the “effect on the stimulatory effect of C3” value in [2] was “inhibit the stimulatory effect of C3 on neurite extension”.

In the case of AKKERQRKDTQ (peptide fragment) [D3], the “binding to the NCAM Ig1 domain” value in [3] was “bound the NCAM-Ig1 in solution; also recorded: bind to the NCAM Ig1 domain”. For the same molecule, the neurite outgrowth entry in test [2] is “strongly stimulated neurite outgrowth; also recorded: increase in neurite outgrowth”. Also, in test [4], the “aggregation of cells (number of cell aggregates)” value was “inhibited aggregation of cells; also recorded: higher number of cell aggregates”.

Take ARALNWGAKPK (peptide fragment) [D4]: the “binding to the NCAM Ig1 domain” value in test [3] was “bound the NCAM-Ig1 in solution; also recorded: bind to the NCAM Ig1 domain”. Further, the neurite outgrowth entry in test [2] was “strongly stimulated neurite outgrowth; also recorded: increase in neurite outgrowth”. The “aggregation of cells (number of cell aggregates)” value in test [4] is “inhibited aggregation of cells; also recorded: higher number of cell aggregates”.

For the molecule ASKKPKRNIKA (peptide fragment) [C3], the “binding to the NCAM Ig1 domain” value in test [3] was “bound the NCAM-Ig1 in solution; also recorded: bind to the NCAM Ig1 domain”. Moreover, in test [2], the “concentration of maximal neuritogenic effect” value is 0.54 µM and the neurite outgrowth entry is “strongly stimulated neurite outgrowth; also recorded: increase in neurite outgrowth”. In addition, in test [2] (0.54 μM), the branching of neurites result is given as “strongly stimulated” and the “number of neurites per cell” value is on record as “strongly stimulated”. In addition, in [2] (0.54 μM, plastic (FIG. 11)), the “length of the longest neurite” value is “strongly stimulated”. Besides, in test [5], the “NCAM-induced increase in neurite length on NCAM-140 expressing fibroblasts (LBN)” value was “no difference between the length of neurites on fibroblasts with or without NCAM expression” and the “neurite extension on fibroblasts without NCAM expression (LVN)” value is reported as “neurite extension was stimulated”. Further, the proliferation entry in test [6] (higher concentrations, bell-shaped dose-response curve) is listed as “inhibited proliferation”. The “proliferation of neuroblastoma cells” value in test [7] is listed as “promoted proliferation”. Also, in test [8], the “neurite outgrowth of PC12 cells” value is recorded as “increased neurite outgrowth” and the “proliferation of PC12 cells” value was “inhibitory effect on proliferation”. Further, the cell growth entry in [9] is given as “increase cell growth”. For the same molecule, the “aggregation of cells (number of cell aggregates)” value in [4] was “inhibited aggregation of cells; also recorded: higher number of cell aggregates”.

In the case of “C3d: Dendrimer of four C3 peptide monomers coupled to a backbone consisting of three lysines (ASKKPKRNIKA; also: dendrimer of four monomers coupled to a backbone of three lysines)”, in test [5], the “NCAM-induced increase in neurite length on NCAM-140 expressing fibroblasts (LBN)” value is reported as “inhibited” and the “neurite extension on fibroblasts without NCAM expression (LVN)” value is “stimulated neurite out-growth”. For the same molecule, in test [6] (0.8 μM), the “incorporation of BrdU (neuronal proliferation)” value is listed as “increased incorporation of BrdU”. Besides, in test [4], the “aggregation of cells (number of cell aggregates)” value is on record as “most potent form”. Further, the “number of aggregates of primary hippocampal neurones” value in test [4] (24 h in culture, 1.07 μM and 2.15 μM) was “increase in the number of aggregates formed”.

In the case of “D3-dendrimer: Four D3 peptide-monomers coupled to a backbone consisting of three lysines (AKKERQRKDTQ; also: dendrimer of four monomers coupled to a backbone of three lysines)”, the “aggregation of cells (number of cell aggregates)” value in test [4] is listed as “increased the number of aggregates formed”.

For the molecule “D4-dendrimer: Four D4 peptide-monomers coupled to a backbone consisting of three lysines (ARALNWGAKPK; also: dendrimer of four monomers coupled to a backbone of three lysines)”, the “aggregation of cells (number of cell aggregates)” value in test [4] is “increased the number of aggregates formed”.

Regarding GEISVGESKFFL (peptide fragment) [Ig1-p], the aggregation of cells result in test [4] (24 h, 250 μg/ml (FIG. 24)) is recorded as “inhibited aggregation of cells”. For the same molecule, the neurite outgrowth result in test [1] (24 h, 5 μg/ml (FIG. 24)) was “promote neurite outgrowth”.

On to GRILARGEINFK (peptide fragment) [Ig2-p], for which, in test [4], the “aggregation of cells (number of cell aggregates)” value is listed as “inhibited aggregation of cells”. In addition, the “neurite outgrowth (total neurite length per cell)” value in test [1] (24 h) is “strongly stimulated neurite outgrowth”.

For GSILASGESNFK (peptide fragment) [P2-3S], the “inhibitory effect on aggregation of hippocampal cells” value in test [4] (24 h) is given as “no inhibitory effect”. The “neurite outgrowth (total neurite length per cell)” value in [1] (24 h) was “no neuritogenic effect; also recorded: no stimulatory effect”.

For GSILASGSSNFK [P2-4S], in [4] (24 h), the “inhibitory effect on aggregation of hippocampal cells” value is on record as “only a slight inhibitory effect”. In [1] (24 h), the “neurite outgrowth (total neurite length per cell)” value is “no neuritogenic effect; also recorded: no stimulatory effect”.

As to “omega-conotoxin GVIA [reference compound]”, the “effect on the stimulatory effect of C3” value in [2] is reported as “inhibit the stimulatory effect of C3 on neurite extension”.

Take pertussis toxin [reference compound]: in test [2], the “effect on the stimulatory effect of C3” value is recorded as “inhibit the stimulatory effect of C3 on neurite extension”.

B1: Ig1-2: Unmutated recombinant double Ig domain (Ig1-Ig2) of NCAM, NCAM (20-208) (protein)
chain: LQVDIVPSQGEISVGESKFFLCQVAGDAKDKDISWFSPNGEKLSPNQQRISVVWNDDDSSTLTIYNANIDDAGIYKCVVTAEDGTQSEATVNVKIFQKLMFKNAPTPQEFKEGEDAVIVCDVVSSLPPTIIWKHKGRDVILKKDVRFIVLSNNYLQIRGIKKTDEGTYRCEGRILARGEINFKDIQVIV
Regarding B1, in [10], the “dimer formation (elution in gel filtration)” value is reported as “elutes as a dimer”. For the same molecule, the “neurite outgrowth (total neurite length per cell)” value in test [1] (24 h) is recorded as “only slight, if any, effect”.

B2: mutated double domain: NCAM (20-208) double Ig domain with mutations R192A, R196A and E198A (protein)
chain: B1 chain with R173A, R177A, E179A
For the molecule B2, the “neurite outgrowth (total neurite length per cell)” value in [1] (24 h) was “inhibited in a dose dependent manner”.
